Assay results published in patent US20210253651A1, “METHOD FOR PRODUCING ORGANIC COMPOUND-ENCAPSULATING FERRITIN” (Ajinomoto Co., Inc., priority 2018, published 2021).
Where a name gives a salt, the structure may show the parent alone. Read-outs that look alike come from different tables or passages of the source.

Tests used:
FTHc ferritin = target: T1, FTHc ferritin (Homo sapiens, UniProt P02794); assay: one-step incorporation of DOX into mutant ferritin FTHc; assay type: physicochemical; conditions: pH 8, 50° C., 60 minutes, DOX 0.3 mg/L
T1 construct: pET20-FTH carrying a DNA encoding a human-derived ferritin H chain monomer as a template; single cysteine residue (C) appended; made in house; host or cells: Escherichia coli BL21 (DE3), plasmid pET20-FTHc
Method: PCR was carried out using pET20-FTH carrying a DNA encoding a human-derived ferritin H chain monomer as a template as well as the following primers: 5′-[…]-3′ (SEQ ID NO: 12) and 5′-[…]-3′ (SEQ ID NO: 13). The resulting PCR products were purified using Wizard DNA Clean-Up System (Promega Corporation), and then treated with restriction enzymes, Dpnl and BamHI (Takara Bio Inc.) for self-ligation in order to construct an expression plasmid (pET20-FTHc) carrying a gene encoding FTHc monomer with a cysteine added to the C-terminus. Ferritin including FTHc monomers is referred to as FTHc ferritin, as appropriate.
DOX was mixed with 1 mL of 50 mM Tris-HCl buffer (pH 8) that contains each mutate ferritin at a final concentration of 1 mg/mL, to achieve a final concentration of 0.3 mg/L, and then the resulting solutions were left to stand at 50° C. for 60 minutes. After the standing and centrifuging (at 15,000 rpm for one minute), the supernatant was injected into the desalting column PD-10 (Sephadex G-25 filled product, GE Healthcare Inc.) equilibrated with 10 mM Tris-HCl buffer (pH 8) to separate the protein from a reagent that was not encapsulated. […] The concentration of contained protein was determined using the protein assay CBB solution (Nacalai Tesque, Inc.) as well as bovine albumin as a standard. The DOX concentration was determined based on analysis of the absorbance at 480 nm.

ferritin = conditions: cited from earlier work
[1] = room temperature; cited from earlier work
FTH ferritin = target: T2, FTH ferritin (Homo sapiens, UniProt P02794); assay: one-step process incorporation of small molecule agents into FTH ferritin; assay type: physicochemical; conditions: pH of buffer giving the largest amount of incorporation within ferritin
T2 construct: made in house; host or cells: Escherichia coli BL21 (DE3), plasmid pET20-FTH
Method: All of the reactions were performed in 0.1 mL volume. […] The absorbances were measured using spectrophotometer (DU-800, Beckman Coulter Inc.) for these solutions, and the concentration of contained protein was determined using the protein assay CBB solution (Nacalai Tesque, Inc.) as well as bovine albumin as a standard. Absorbances at 280 nm and 480 nm were measured for Rhodamine B and Congo Red. […] Then, after the absorbances were calibrated based on the absorbances that were derived from the proteins and presumed by the amount of contained protein quantified using the protein assay CBB solution, the concentrations of small molecule agents were determined based on the calibration curves obtained by the absorbances of the molecules. […] As a result, the one-step process enabled incorporating also the small molecule agents with different physical properties such as molecular weight and pKa simply and easily.

[2] = pKa of the organic compound; assay type: physicochemical; conditions: average of plural pKa values
Description: The pKa of the organic compound can be determined by a neutralization titration method (Kagaku Binran Kiso-hen I and II (Handbook of Chemistry, basic I and II) (Ver. 4) edited by The Chemical Society of Japan, Maruzen Publishing, 1993). […] When the organic compound has a single pKa value, the value is employed as the pKa of the organic compound.

T2 sequence (P02794 whole entry): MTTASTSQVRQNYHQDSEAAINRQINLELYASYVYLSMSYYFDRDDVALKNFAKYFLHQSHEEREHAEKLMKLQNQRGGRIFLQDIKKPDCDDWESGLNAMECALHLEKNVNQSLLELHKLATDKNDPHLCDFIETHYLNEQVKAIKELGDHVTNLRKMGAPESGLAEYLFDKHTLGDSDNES
T1 sequence (P02794 with tags, fused parts or gaps): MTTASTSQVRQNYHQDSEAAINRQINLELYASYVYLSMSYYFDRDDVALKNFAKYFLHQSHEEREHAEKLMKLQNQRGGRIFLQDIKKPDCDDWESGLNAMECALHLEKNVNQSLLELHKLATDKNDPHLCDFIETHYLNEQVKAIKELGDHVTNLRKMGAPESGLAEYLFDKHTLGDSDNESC

## COc1cccc2c1C(=O)c1c(O)c3c(c(O)c1C2=O)C[C@@](O)(C(=O)CO)C[C@@H]3OC1CC(N)C(O)C(C)O1 (some centres unmarked) [DOX, Doxorubicin hydrochloride]
FTHc ferritin
  incorporation efficiency of the reagent: 8.6 % (wt)
ferritin; denaturing with urea and refolding
  doxorubicin molecules encapsulated in ferritin: approximately 33 molecules
ferritin; disassembly at pH 2, reassembly at pH 7-9
  doxorubicin molecules encapsulated in ferritin: approximately 28 molecules
ferritin; high pressure (200-800 MPa) for 6-20 hours
  doxorubicin molecules encapsulated in ferritin: 10-20 molecules
ferritin; modified ferritin, pH 2 by addition of HCl
  doxorubicin molecules encapsulated in ferritin: 30-90 molecules
[1]
  solubility of DOX in water: ≥ 60 g/L
FTH ferritin
  Optimal pH in reaction: 9
[2]
  pKa: 8.42
